Results: patent US5559150A, “N,N-disulfonylated aminobenzene carboxlic acids and the use thereof as thrombin inhibitors” (3-Dimensional Pharmaceuticals, Inc., priority 1995, dated 1996)

What was measured:
[1] = target: T1, Purified human α-thrombin (Homo sapiens, UniProt P00734); experiment: In vitro inhibition of purified thrombin (hydrolysis of peptide p-nitroanilide substrate); type: biochemical
T1 construct: Purified human α-thrombin; purchased Enzyme Research Laboratories Inc
Description: (§1) All assays are based on the ability of the test compound to inhibit the hydrolysis of a peptide p-nitroanilide substrate. In a typical experiment, substrate is prepared in DMSO, and diluted into an assay buffer consisting of 50 mM HEPES, 130 mM NaCl, pH 7.5. The final concentration for each of the substrates is listed below. All substrate concentrations are at least 10-fold lower than Km to insure inhibition is competitive. Test compounds are prepared as a 1 mg/ml solution in DMSO, and 3 additional 10-fold dilutions in DMSO are prepared. Enzyme solutions are prepared at the concentrations listed below in assay buffer.
(§2) In a typical IC50 determination, into each well of a 96 well plate is pipetted 280 uL of substrate solution, 10 μL of inhibitor solution, and the plate allowed to thermally equilibrate at 37° C. in a Molecular Devices Plate Reader for >10 minutes. Reactions were initiated by the addition of a 20 μL aliquot of enzyme, and the absorbance increase at 405 nm is recorded for 15 minutes. Data corresponding to less than 10% of the total substrate hydrolysis was used in the calculations. The ratio of the velocity (rate of the change in absorbance as a function of time) for a sample containing no inhibitor is divided by the velocity of a sample containing inhibitor, and is plotted as a function of inhibitor concentration. […]

Factor Xa = target: T2, Factor Xa (Homo sapiens, UniProt P00742); experiment: In vitro inhibition of purified Factor Xa (hydrolysis of peptide p-nitroanilide substrate); type: biochemical; settings: Bz-Ile-Glu-Gly-Arg-pNa substrate; 10 nM Factor Xa; pH 7.5, 37° C.
T2 construct: purchased Enzyme Research Laboratories Inc
Description: as §1
as §2, with “Data corresponding to less than 10% of the total substrate hydrolysis was used in the calculations.” left out
Factor Xa activity was assessed as the ability to hydrolyse the substrate Bz-Ile-Glu-Gly-Arg-pNa (obtained from Sigma Chemical Company, St Louis, Mo.). […]

T2 sequence (P00742 235-488 limits assumed): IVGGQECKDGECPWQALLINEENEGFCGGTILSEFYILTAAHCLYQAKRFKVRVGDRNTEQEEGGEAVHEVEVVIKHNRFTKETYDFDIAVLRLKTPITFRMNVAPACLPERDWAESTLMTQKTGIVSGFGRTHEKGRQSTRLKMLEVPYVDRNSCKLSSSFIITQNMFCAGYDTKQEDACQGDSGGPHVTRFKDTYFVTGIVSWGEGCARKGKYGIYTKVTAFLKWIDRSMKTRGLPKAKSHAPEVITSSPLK
T2 sequence (P00742 41-179 partner limits assumed): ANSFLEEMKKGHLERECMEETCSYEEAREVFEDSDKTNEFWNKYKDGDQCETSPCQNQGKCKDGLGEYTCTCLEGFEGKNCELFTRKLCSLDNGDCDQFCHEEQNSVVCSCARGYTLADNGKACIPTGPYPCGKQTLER

O=C(O)c1cccc(N(S(=O)(=O)c2ccc3ccccc3c2)S(=O)(=O)c2ccc3ccccc3c2)c1 [Example 4, 3-[Bis[(2-naphthalenyl)sulfonyl]amino]benzoic Acid]
IC50 ([1]; Bz-Phe-Val-Arg-pNa substrate, 36 nM thrombin, pH 7.5, 37° C.): 0.8 µM
inhibition of thrombin, potency and selectivity (in words) ([1]; conclusion from Table 1, selectivity versus other serine proteases such as plasmin): selective and highly potent inhibitors of thrombin
IC50 (Factor Xa): 59 µM
